Measured values as given in patent US20240368163A1, “COMPOUNDS AND METHODS FOR MODULATING SPLICING” (REMIX THERAPEUTICS INC., priority 2021, published 2024).

Legend:
Format in all cases: cell-based, human
SMN2 = assay: Splicing RT-qPCR panel, SMN2 canonical junction (CJ) mRNA; conditions: Homo sapiens, RT-qPCR panel, canonical junction mRNA; compound concentration having 50% response in CJ decrease; read-out: SMN2 IC50 (decrease in CJ mRNA levels)
Procedure, shortened: (§1)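 Splice switching is measured in A673 or K562 cells after 24 h compound exposure (maximum 10 uM, 3-fold steps). Canonical and alternative junction mRNA levels are quantified by RT-qPCR relative to housekeeper and DMSO.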

Target C [1] = assay: Splicing RT-qPCR panel, Target C canonical junction (CJ) mRNA; conditions: Homo sapiens, RT-qPCR panel, canonical junction mRNA; compound concentration having 50% response in CJ decrease; read-out: Target C IC50 (decrease in CJ mRNA levels)
Procedure, shortened: as §1

Target C [2] = assay: HiBiT protein abundance assay, Target C; conditions: Homo sapiens, K562, 24 h, Table 13A, modified K562 cells
Procedure, shortened: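 Cells carrying the HiBiT knock-in were plated at 10000 cells/well, dosed with compound (10-point, 3-fold, 10 μM top final) and incubated 24 hours at 37 °C. Lytic reagent was then added and luminescence read. Percent response fed a 4PL fit for IC50.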

MYB [3] = assay: Splicing RT-qPCR assay, MYB mRNA canonical junction (CJ) and alternative junction (AJ); conditions: Homo sapiens; for AC50: increase in AJ mRNA
Procedure, shortened: as §1

HTT [4] = assay: HiBiT protein abundance assay, HTT; conditions: Homo sapiens, K562, 24 h, Table 13A, modified K562 cells
Procedure, shortened: (§2)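 Target abundance was measured as HiBiT luminescence after 24 h compound treatment of tagged K562 cells. Responses were normalized between unmodified K562 and DMSO-treated tagged cells, and IC50 taken at the 50% level of a 4PL curve.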

HTT [5] = assay: Splicing RT-qPCR assay, HTT mRNA canonical junction (CJ) and alternative junction (AJ); conditions: Homo sapiens; for AC50: increase in AJ mRNA
Procedure, shortened: as §1

MYB [6] = assay: HiBiT protein abundance assay, MYB; conditions: Homo sapiens, K562, 24 h, Table 13A, modified K562 cells
Procedure, shortened: as §2

[7] = 24 h, decrease in CJ mRNA, A673 or K562 cells, 24 hours treatment, RT-qPCR, read-out: MYB CJ IC50
[8] = 24 h, A673 or K562 cells, 24 hours treatment, RT-qPCR
[9] = RT-qPCR panel, canonical junction mRNA, compound concentration having 50% response in CJ decrease, read-out: MYB IC50 (decrease in CJ mRNA levels)
[10] = 24 h, decrease in CJ mRNA, A673 or K562 cells, 24 hours treatment, RT-qPCR, read-out: HTT CJ IC50
[11] = RT-qPCR panel, canonical junction mRNA, compound concentration having 50% response in CJ decrease, read-out: HTT IC50 (decrease in CJ mRNA levels)

Row | Structure (SMILES) | IC50 (SMN2) [nM] | IC50 (Target C [1]) [nM] | IC50 (Target C [2]) [nM] | IC50 (MYB [3]; [7]) [nM] | AC50 (MYB [3]; [8]) [nM] | IC50 (MYB [3]; [9]) [nM] | IC50 (HTT [4]) [nM] | IC50 (HTT [5]; [10]) [nM] | AC50 (HTT [5]; [8]) [nM] | IC50 (HTT [5]; [11]) [nM] | IC50 (MYB [6]) [nM]
1 | CCNC1CCN(c2ccc(-c3ccc(-c4cn[nH]c4)c4ncsc34)nn2)CC1 [Compound 410, N-ethyl-1-[6-[4-(1H-pyrazol-4-yl)-1,3-benzothiazol-7-yl]pyridazin-3-yl]piperidin-4-amine] | 1000 to 10000 | > 10000 | 1000 to 10000 | 1000 to 10000 | > 10000 | 1000 to 10000 | 1000 to 10000 | > 10000 | > 10000 | > 10000 | 1000 to 10000
2 | CNCC1CCN(c2ncc(-c3ccc(-c4cn[nH]c4)c4ncsc34)nn2)C1 (stereo not shown) [Compound 411, N-methyl-1-[1-[6-[4-(1H-pyrazol-4-yl)-1,3-benzothiazol-7-yl]-1,2,4-triazin-3-yl]pyrroledin-3-yl]metha-namine] | 1000 to 10000 | > 10000 | > 10000 | > 10000 | > 10000 | > 10000 | > 10000 | 1000 to 10000 | > 10000 | 1000 to 10000 | > 10000
3 | CNC1CCN(c2ncc(-c3ccc(-c4cn[nH]c4)c4ncsc34)nn2)C1 (stereo not shown) [Compound 412, N-methyl-1-[6-[4-(1H-pyrazol-4-yl)-1,3-benzothiazol-7-yl]-1,2,4-triazin-3-yl]pyrrolidin-3-amine] | 100 to 1000 | > 10000 | 1000 to 10000 | > 10000 | > 10000 | > 10000 | 1000 to 10000 | 100 to 1000 | 1000 to 10000 | 100 to 1000 | 1000 to 10000
4 | CN(C)C1CCN(c2ncc(-c3ccc(-c4cn[nH]c4)c4ncsc34)nn2)C1 (stereo not shown) [Compound 413] | 100 to 1000 | 100 to 1000 | 100 to 1000 | 100 to 1000 | 100 to 1000 | 100 to 1000 | 100 to 1000 | 100 to 1000 | 100 to 1000 | 100 to 1000 | 100 to 1000
5 | c1nc2c(-c3cn[nH]c3)ccc(-c3cnc(N4CCNC(C5CC5)C4)nn3)c2s1 (stereo not shown) [Compound 414] | 1000 to 10000 | 1000 to 10000 | 100 to 1000 | 1000 to 10000 | > 10000 | 1000 to 10000 | 100 to 1000 | 100 to 1000 | 100 to 1000 | 100 to 1000 | 1000 to 10000
6 | c1nc2c(-c3cn[nH]c3)ccc(-c3cnc(N4CCC(NC5CC5)C4)nn3)c2s1 (stereo not shown) [Compound 416, N-cyclopropyl-1-[6-[4-(1H-pyrazol-4-yl)-1,3-benzothiazol-7-yl]-1,2,4-triazin-3-yl]py-rrolidin-3-amine] | 1000 to 10000 | > 10000 | 1000 to 10000 | 1000 to 10000 | > 10000 | 1000 to 10000 | 1000 to 10000 | 1000 to 10000 | 1000 to 10000 | 1000 to 10000 | 1000 to 10000
7 | c1nc2c(-c3cn[nH]c3)ccc(-c3ccc(N4CCNC(C5CC5)C4)nn3)c2s1 (stereo not shown) [Compound 417] | 100 to 1000 | > 10000 | 1000 to 10000 | 1000 to 10000 | 1000 to 10000 | 1000 to 10000 | 100 to 1000 | 1000 to 10000 | > 10000 | 1000 to 10000 | > 10000
8 | CN(c1ncc(-c2ccc(-c3cn[nH]c3)c3ncsc23)nn1)[C@@H]1C[C@H]2CC[C@@H](C1)N2 [Compound 420] | 100 to 1000 | 100 to 1000 | < 100 | 100 to 1000 | 100 to 1000 | 100 to 1000 | < 100 | – | < 100 | < 100 | 100 to 1000
9 | CN(c1ncc(-c2ccc(-c3cn[nH]c3)c3ncsc23)nn1)C1C[C@H]2CCC[C@H](C1)N2 (stereo partly shown) [Compound 421] | < 100 | < 100 | < 100 | 100 to 1000 | 100 to 1000 | 100 to 1000 | < 100 | – | < 100 | < 100 | 100 to 1000
10 | c1nc2c(-c3cn[nH]c3)ccc(-c3cnc(N[C@@H]4C[C@H]5CC[C@@H](C4)N5)nn3)c2s1 [Compound 422] | 100 to 1000 | 100 to 1000 | 100 to 1000 | 100 to 1000 | 1000 to 10000 | 100 to 1000 | 100 to 1000 | – | 100 to 1000 | < 100 | 100 to 1000
11 | CN(c1ncc(-c2ccc(-c3cn[nH]c3)c3ncsc23)nn1)[C@H]1C[C@]2(C)CC[C@](C)(C1)N2 [Compound 424, (1S,5R)—N,1,5-trimethyl-N-[6-[4-(1H-pyrazol-4-yl)-1,3-benzothiazol-7-yl]-1,2,4-triazin-3-yl]-8-azabicyclo [3.2.1] octan-3-amine] | 100 to 1000 | < 100 | < 100 | 100 to 1000 | 100 to 1000 | 100 to 1000 | < 100 | – | < 100 | < 100 | 100 to 1000
12 | CN(c1ncc(-c2ccc(-c3cn[nH]c3)c3ncsc23)nn1)[C@@H]1C[C@]2(C)CC[C@](C)(C1)N2 [Compound 425, (1S,5R)—N,1,5-trimethyl-N-[6-[4-(1H-pyrazol-4-yl)-1,3-benzothiazol-7-yl]-1,2,4-triazin-3-yl]-8-azabicyclo [3.2.1] octan-3-amine] | 1000 to 10000 | 100 to 1000 | 100 to 1000 | 1000 to 10000 | > 10000 | 1000 to 10000 | 100 to 1000 | 100 to 1000 | 100 to 1000 | 100 to 1000 | 1000 to 10000
13 | CN(c1ncc(-c2ccc(-c3cn[nH]c3)c3ncsc23)nn1)C1CC2CCC(C1)N2 (stereo not shown) [Compound 443] | 100 to 1000 | 100 to 1000 | < 100 | – | – | 1000 to 10000 | < 100 | – | – | < 100 | 100 to 1000
14 | CN(c1ncc(-c2ccc(-c3cn[nH]c3)c3ncsc23)nn1)[C@@H]1C[C@H]2CCC[C@@H](C1)N2 [Compound 449, (1S,5R)—N-methyl-N-[6-[4-(1H-pyrazol-4-yl)-1,3-benzothiazol-7-yl]-1,2,4-triazin-3-yl]-9-azabicyclo[3.3.1]nonan-3-amine] | < 100 | < 100 | < 100 | – | – | 100 to 1000 | < 100 | – | – | < 100 | 100 to 1000
